Values joined by “and” are separate entries in the source; they are usually repeats but may differ in a detail not shown here. Equal values may be shown once. Toxic doses and inconclusive results are not listed. How the source made its calls: active means survival T/C of 150% or more; inactive means T/C below 125% in these data.
Tested on: P388 leukemia ip, CD2F1 mice, survival T/C
Test: NCI In Vivo Anticancer Drug Screen. Data for tumor model P388 Leukemia (intraperitoneal) in CD2F1 (CDF1) mice
Conditions: endpoint: median survival time, higher = longer survival
In short: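 Mice carrying the transplanted tumor received test compound or vehicle. Survival was recorded in each group, and the value is the treated-group measurement divided by that of the vehicle-treated control group.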

[1] = dose: 6.25 mg/kg/injection, schedule: Q01DX009 (ip), vehicle: water
[2] = dose: 12.5 mg/kg/injection, schedule: Q01DX009 (ip), vehicle: water
[3] = dose: 25.0 mg/kg/injection, schedule: Q01DX009 (ip), vehicle: water
[4] = dose: 60.0 mg/kg/injection, schedule: Q01DX005 (ip), vehicle: Klucel (hydroxypropylcellulose) (HPC)
[5] = dose: 120.0 mg/kg/injection, schedule: Q01DX005 (ip), vehicle: Klucel (hydroxypropylcellulose) (HPC)

Measured: T/C

[Na+]
inactive: dose: 50.0 mg/kg/injection, schedule: Q01DX009 (ip), vehicle: saline 95 % of control | dose: 100.0 mg/kg/injection, schedule: Q01DX009 (ip), vehicle: saline 100 % of control | dose: 200.0 mg/kg/injection, schedule: Q01DX009 (ip), vehicle: saline 98 % of control | dose: 0.5 % in 0.5 ml injection vol, schedule: Q01DX009 (ip), vehicle: water 105 % of control and 96 % of control | dose: 1.0 % in 0.5 ml injection vol, schedule: Q01DX009 (ip), vehicle: water 100 % of control and 96 % of control | dose: 2.0 % in 0.5 ml injection vol, schedule: Q01DX009 (ip), vehicle: water 102 % of control and 106 % of control | dose: 3.12 % in 0.5 ml injection vol, schedule: Q01DX009 (ip), vehicle: water 101 % of control and 92 % of control | dose: 4.0 % in 0.5 ml injection vol, schedule: Q01DX009 (ip), vehicle: water 100 % of control and 90 % of control | dose: 6.25 % in 0.5 ml injection vol, schedule: Q01DX009 (ip), vehicle: water 108 % of control and 114 % of control | dose: 8.0 % in 0.5 ml injection vol, schedule: Q01DX009 (ip), vehicle: water 99 % of control and 104 % of control and 108 % of control

COc1cc2c(cc1OC)C1c3cc(OC)c(OC)cc3CCN1CC2
inactive: dose: 3.13 mg/kg/injection, schedule: Q01DX009 (ip), vehicle: water 106 % of control | [1] 106 % of control | [2] 100 % of control | [3] 107 % of control

Nc1ncnc2c1ccn2C1OC2COP(=O)(O)OC2C1O (configuration not stated)
inactive: dose: 0.13 mg/kg/injection, schedule: Q03HX024 (ip), vehicle: saline 90 % of control | dose: 0.25 mg/kg/injection, schedule: Q03HX024 (ip), vehicle: saline 104 % of control | dose: 0.5 mg/kg/injection, schedule: Q03HX024 (ip), vehicle: saline 100 % of control | dose: 1.0 mg/kg/injection, schedule: Q01DX009 (ip), vehicle: saline 100 % of control | dose: 1.0 mg/kg/injection, schedule: Q03HX024 (ip), vehicle: saline 122 % of control | dose: 1.0 mg/kg/injection, schedule: Q04DX003 (ip), vehicle: saline 104 % of control | dose: 2.0 mg/kg/injection, schedule: Q01DX001 (ip), vehicle: saline 100 % of control | dose: 2.0 mg/kg/injection, schedule: Q01DX009 (ip), vehicle: saline 104 % of control | dose: 2.0 mg/kg/injection, schedule: Q04DX003 (ip), vehicle: saline 100 % of control | dose: 4.0 mg/kg/injection, schedule: Q01DX001 (ip), vehicle: saline 100 % of control | dose: 4.0 mg/kg/injection, schedule: Q04DX003 (ip), vehicle: saline 104 % of control | dose: 8.0 mg/kg/injection, schedule: Q01DX001 (ip), vehicle: saline 109 % of control | dose: 8.0 mg/kg/injection, schedule: Q01DX009 (ip), vehicle: saline 95 % of control | dose: 8.0 mg/kg/injection, schedule: Q04DX003 (ip), vehicle: saline 113 % of control | dose: 16.0 mg/kg/injection, schedule: Q01DX001 (ip), vehicle: saline 118 % of control

CN1CCCN2CCCN(C)P12
inactive: dose: 6.25 mg/kg/injection, schedule: Q01DX005 (ip), vehicle: saline 99 % of control | dose: 12.5 mg/kg/injection, schedule: Q01DX005 (ip), vehicle: saline 98 % of control | dose: 25.0 mg/kg/injection, schedule: Q01DX005 (ip), vehicle: saline 105 % of control

CCN(CC)Cc1cc(N)cc(N=Nc2ccc3c(c2)c2ccccc2n3CC)c1O
inactive: dose: 50.0 mg/kg/injection, schedule: Q01DX009 (ip), vehicle: saline with Tween-80 97 % of control | dose: 100.0 mg/kg/injection, schedule: Q01DX009 (ip), vehicle: saline with Tween-80 108 % of control | dose: 200.0 mg/kg/injection, schedule: Q01DX009 (ip), vehicle: saline with Tween-80 105 % of control

CS(=O)(=O)Nc1cc(C(O)CNC2CC2)ccc1O (configuration not stated)
inactive: dose: 0.37 mg/kg/injection, schedule: Q01DX001 (ip), vehicle: saline 96 % of control | dose: 0.75 mg/kg/injection, schedule: Q01DX001 (ip), vehicle: saline 98 % of control | dose: 1.5 mg/kg/injection, schedule: Q01DX001 (ip), vehicle: saline 100 % of control and 95 % of control

Cc1ccc2c(O)c3c(cc2c1)C(=O)c1c2c(cc(O)c1C3=O)C1(C)OC(O2)C(O)C(N(C)C)C1O (configuration not stated)
inactive: dose: 1.6 mg/kg/injection, schedule: Q01DX009 (ip), vehicle: other 97 % of control | dose: 3.13 mg/kg/injection, schedule: Q01DX009 (ip), vehicle: other 98 % of control | dose: 6.25 mg/kg/injection, schedule: Q01DX009 (ip), vehicle: other 87 % of control | dose: 12.5 mg/kg/injection, schedule: Q01DX009 (ip), vehicle: other 116 % of control | dose: 25.0 mg/kg/injection, schedule: Q01DX009 (ip), vehicle: other 97 % of control

Cc1ccc(NCN2C(=O)c3ccccc3C2=O)c(C)n1
inactive: [4] 92 % of control | [5] 89 % of control

CC(=O)C1(O)CCCC(OC2CC(N)C(O)C(C)O2)C1 (configuration not stated)
inactive: [1] 100 % of control | [2] 95 % of control | [3] 104 % of control | dose: 50.0 mg/kg/injection, schedule: Q01DX009 (ip), vehicle: water 113 % of control | dose: 100.0 mg/kg/injection, schedule: Q01DX009 (ip), vehicle: water 113 % of control

CC1CN1P(=O)(N1CC2CCC(CC2)C1)N1CC1C (configuration not stated)
inactive: dose: 6.25 mg/kg/injection, schedule: Q01DX009 (ip), vehicle: saline 109 % of control | dose: 12.5 mg/kg/injection, schedule: Q01DX009 (ip), vehicle: saline 95 % of control | dose: 25.0 mg/kg/injection, schedule: Q01DX009 (ip), vehicle: saline 104 % of control | dose: 100.0 mg/kg/injection, schedule: Q04DX003 (ip), vehicle: saline with Tween-80 122 % of control | dose: 200.0 mg/kg/injection, schedule: Q04DX003 (ip), vehicle: saline with Tween-80 90 % of control

CC(C)Cc1cc(-c2cc(CC(C)C)[nH]n2)n[nH]1
inactive: dose: 60.0 mg/kg/injection, schedule: Q01DX005 (ip), vehicle: saline with Tween-80 106 % of control | dose: 120.0 mg/kg/injection, schedule: Q01DX005 (ip), vehicle: saline with Tween-80 95 % of control | dose: 240.0 mg/kg/injection, schedule: Q01DX005 (ip), vehicle: saline with Tween-80 100 % of control

CC(C)c1cc(C(C)C)c(S(=O)(=O)N/N=C2\C=CCC(C)(C)C2)c(C(C)C)c1
inactive: dose: 50.0 mg/kg/injection, schedule: Q01DX009 (ip), vehicle: DMSO 87 % of control | dose: 100.0 mg/kg/injection, schedule: Q01DX009 (ip), vehicle: DMSO 89 % of control | dose: 200.0 mg/kg/injection, schedule: Q01DX009 (ip), vehicle: DMSO 97 % of control

O=C1CSC(c2ccc(Cl)cc2)N1N1C(=O)CSC1c1ccc(Cl)cc1 (configuration not stated)
inactive: [4] 99 % of control | [5] 91 % of control | dose: 240.0 mg/kg/injection, schedule: Q01DX005 (ip), vehicle: Klucel (hydroxypropylcellulose) (HPC) 90 % of control

O=C(O)CCC1(C(=O)O)NCCc2c1[nH]c1ccccc21 (configuration not stated)
inactive: dose: 25.0 mg/kg/injection, schedule: Q01DX009 (ip), vehicle: suspension in saline 95 % of control | dose: 50.0 mg/kg/injection, schedule: Q01DX009 (ip), vehicle: suspension in saline 99 % of control | dose: 100.0 mg/kg/injection, schedule: Q01DX009 (ip), vehicle: suspension in saline 98 % of control

Cc1nn(C)c(=S)[nH]c1=O
inactive: dose: 50.0 mg/kg/injection, schedule: Q01DX005 (ip), vehicle: Klucel (hydroxypropylcellulose) (HPC) 103 % of control | dose: 50.0 mg/kg/injection, schedule: Q01DX005 (ip), vehicle: saline with Tween-80 105 % of control | dose: 100.0 mg/kg/injection, schedule: Q01DX005 (ip), vehicle: Klucel (hydroxypropylcellulose) (HPC) 95 % of control | dose: 100.0 mg/kg/injection, schedule: Q01DX005 (ip), vehicle: saline with Tween-80 106 % of control | dose: 200.0 mg/kg/injection, schedule: Q01DX005 (ip), vehicle: Klucel (hydroxypropylcellulose) (HPC) 110 % of control | dose: 200.0 mg/kg/injection, schedule: Q01DX005 (ip), vehicle: saline with Tween-80 103 % of control

CC1(C)CC2(OC2c2ccccc2)C(=O)c2ccccc21 (configuration not stated)
inactive: dose: 25.0 mg/kg/injection, schedule: Q01DX009 (ip), vehicle: Klucel (hydroxypropylcellulose) (HPC) 89 % of control | dose: 50.0 mg/kg/injection, schedule: Q01DX009 (ip), vehicle: Klucel (hydroxypropylcellulose) (HPC) 89 % of control | dose: 100.0 mg/kg/injection, schedule: Q01DX009 (ip), vehicle: Klucel (hydroxypropylcellulose) (HPC) 87 % of control | dose: 400.0 mg/kg/injection, schedule: Q01DX009 (ip), vehicle: Klucel (hydroxypropylcellulose) (HPC) 88 % of control
